The results in this text go back to patent publication US9868766B2, “Peptides as oxytocin agonists” (Hoffmann-La Roche Inc., priority 2012, dated 2018).

What all share (type): cell-based
In one experiment the target is T1, human V1a receptor (Homo sapiens, UniProt P37288).
T1 construct: expressed in transfected cells
Briefly: Calcium flux assay (FLIPR), agonist mode, CHO cells expressing human V1a. Conditions: CHO cells stably expressing human V1a; calcium flux; read-out: hV1a EC50. The source says:
(§1) Chines Hamster Ovary (CHO) cells were transfected with expression plasmids encoding either the human V1a, the human Oxytocin (OTR) or the humanV2 receptor, the later in combination with the chimeric Gqs5 G protein to redirect the signal to Calcium flux. Stable cells were cloned by limiting dilution to yield monoclonal cell lines expressing either human V1a, human V2+Gqs5 or human OTR receptors and selected based on functional responses detected on a fluorometric imaging plate reader (FLIPR) detecting Calcium flux in the cell after receptor activation. The stable cell lines were grown in F-12 K Nutrient Mixture (Kaighns Modification), containing 10% foetal bovine serum (FBS), 1% penicillin-streptomycin, 1% L-glutamate, 200 ug/ml Geneticin at 37° C. in a 10% CO2 incubator at 95% humidity.
(§2) On the afternoon before the assay, cells were plated at a density of 50,000 cells/well into black 96 well plates with clear bottoms to allow cell inspection and fluorescence measurements from the bottom of each well. The density of cells was sufficient to yield a confluent monolayer the next day. Hanks balanced salt solution, without phenol red, containing 20 mM HEPES (pH 7.3) and 2.5 mM probenecid (assay buffer) was prepared fresh for each experiment. Compound dilutions were made using a Beckman Biomek 2000 laboratory automation workstation, in assay buffer containing 1% DMSO. The dye-loading buffer consisted of a final concentration of 2 μM Fluo-4-AM (dissolved in DMSO and pluronic acid) in assay buffer. The existing culture media was removed from the wells and 100 μl of the dye-loading buffer was added to each well and incubated for approximately 60 min at 37° C. in a 5% CO2 incubator at 95% humidity. Once dye-loaded, the cells were washed thoroughly on an Embla cell washer with the assay buffer to remove any unincorporated dye. Exactly 100 μl assay buffer was left in each well.
(§3) Each 96 well plate containing dye-loaded cells was placed into the FLIPR machine and the laser intensity set to a suitable level to detect low basal fluorescence. To test compounds as agonists, 25 μl diluted compound was added to the plate 10 seconds into the fluorescent measurements and fluorescent response was recorded for 5 minutes. The fluorescence data was normalized to the endogenous full agonist dose-response set at 100% for the maximum response and 0% for the minimum. Each agonist concentration-response curve was constructed using a four parameter logistic equation with Microsoft Excel XLFit as follows: Y=Minimum+((Maximum−Minimum)/(1+10^(Log EC50-X)nH)), where y is the % normalized fluorescence, minimum is the minimum y, maximum is the maximum y, log EC50 is the log10 concentration which produces 50% of the maximum induced fluorescence, x is the log10 of the concentration of the agonist compound and H is the slope of the curve (the Hill Coefficient). The maximum value gives the efficacy of the agonist test compound in percentage. The concentration of agonist that produced a half-maximal response is represented by the EC50 value, the logarithm of which yielded the pEC50 value.
A general note: A change in cytosolic calcium serves as a functional read-out for many receptors and channels.

The target of experiment [1] is T2, human Oxytocin (OTR) receptor (Homo sapiens, UniProt P30559).
T2 construct: expressed in transfected cells
T2 sequence (P30559 1-389): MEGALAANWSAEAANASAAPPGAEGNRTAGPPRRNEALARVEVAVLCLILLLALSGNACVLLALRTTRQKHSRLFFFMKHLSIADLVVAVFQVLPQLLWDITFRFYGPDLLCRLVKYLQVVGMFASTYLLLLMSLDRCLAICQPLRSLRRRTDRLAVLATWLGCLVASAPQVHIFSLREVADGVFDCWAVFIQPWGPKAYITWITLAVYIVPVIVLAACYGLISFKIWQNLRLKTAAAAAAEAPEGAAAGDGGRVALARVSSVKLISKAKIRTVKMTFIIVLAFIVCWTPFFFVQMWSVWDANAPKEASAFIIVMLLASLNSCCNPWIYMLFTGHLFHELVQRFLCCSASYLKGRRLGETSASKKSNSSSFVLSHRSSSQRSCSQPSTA
Briefly: Calcium flux assay (FLIPR), agonist mode, CHO cells expressing human OTR. Conditions: for EC50: CHO cells stably expressing human OTR, calcium flux, read-out: hOT EC50; for Emax: CHO, read-out: hOT efficacy (%); for Emax / hOT efficacy (%): maximum response normalized to endogenous full agonist = 100%. In short, it runs like this:
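Monoclonal CHO cells stably expressing the receptor were loaded with 2 μM Fluo-4-AM in HBSS with 20 mM HEPES (pH 7.3) and 2.5 mM probenecid. Compound was added 10 s into reading and fluorescence followed for 5 min.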

The target in the next experiment is T3, human V2 receptor (Homo sapiens, UniProt P30518).
T3 construct: expressed in transfected cells
The experiment can be described thus: Calcium flux assay (FLIPR), agonist mode, CHO cells expressing human V2 + Gqs5. The following applies: for EC50: CHO cells stably expressing human V2 + chimeric Gqs5, calcium flux, read-out: hV2 EC50; for Emax: CHO, read-out: hV2 efficacy (%).
Description: as §1, §2, §3

[2] abbreviates: maximum response normalized to endogenous full agonist = 100%.

Structures are written as SMILES. Positions of bridges follow the written chain, without caps; N, C: chain ends. Non-standard residues stand in square brackets, D forms with d. Residues, ends and D or L forms follow the SMILES beside them. Cha = N[C@@H](CC1CCCCC1)C(=O)O; Nle = CCCC[C@H](N)C(=O)O; Dab = NCC[C@H](N)C(=O)O; Sar = CNCC(=O)O Where only a bound is given, the exact number is not on record here.

T3 sequence (P30518 whole entry): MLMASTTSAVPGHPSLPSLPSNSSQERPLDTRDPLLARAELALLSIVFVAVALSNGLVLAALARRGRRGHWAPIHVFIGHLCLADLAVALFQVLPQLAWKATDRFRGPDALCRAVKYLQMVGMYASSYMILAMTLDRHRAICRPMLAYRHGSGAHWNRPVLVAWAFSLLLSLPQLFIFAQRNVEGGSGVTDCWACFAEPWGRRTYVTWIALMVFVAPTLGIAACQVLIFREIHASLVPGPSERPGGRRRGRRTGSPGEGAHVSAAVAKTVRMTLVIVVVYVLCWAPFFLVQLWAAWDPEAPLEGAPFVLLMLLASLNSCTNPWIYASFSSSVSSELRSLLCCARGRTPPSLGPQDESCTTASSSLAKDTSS
T1 sequence (P37288 whole entry): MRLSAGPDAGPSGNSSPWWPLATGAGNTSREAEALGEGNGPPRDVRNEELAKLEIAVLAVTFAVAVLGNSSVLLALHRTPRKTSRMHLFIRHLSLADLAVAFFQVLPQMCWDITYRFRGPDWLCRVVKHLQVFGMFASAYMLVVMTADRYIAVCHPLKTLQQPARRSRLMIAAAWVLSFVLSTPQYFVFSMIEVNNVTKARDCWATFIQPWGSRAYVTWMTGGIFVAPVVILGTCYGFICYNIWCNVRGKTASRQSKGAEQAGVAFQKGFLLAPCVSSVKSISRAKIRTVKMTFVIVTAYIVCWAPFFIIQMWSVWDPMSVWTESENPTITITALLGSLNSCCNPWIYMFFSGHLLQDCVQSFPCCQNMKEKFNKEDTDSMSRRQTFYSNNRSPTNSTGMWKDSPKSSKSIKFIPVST

`CCCC[C@H](NC(=O)CN(C)C(=O)[C@@H]1CCC(=O)NCC(=O)N[C@@H](Cc2ccc(O)cc2)C(=O)N[C@@H]([C@@H](C)CC)C(=O)N[C@@H](CCC(N)=O)C(=O)N[C@@H](CC(N)=O)C(=O)N1)C(=O)NCC(N)=O` [Example 40] (GYIQNE[Sar][Nle]G-NH2; lactam N-6): the concentration for a half-maximal effect (EC50) on human V1a receptor is over 27000 nM; in experiment [1] it was 0.4 nM; at human V2 receptor, 2190 nM. For the same compound, the Emax amounted to 124% in experiment [1] and 117% on human V2 receptor (setting [2]).

With `CC[C@H](C)[C@@H]1NC(=O)[C@H](Cc2ccc(O)cc2)NC(=O)CNC(=O)CC[C@@H](C(=O)N(C)CC(=O)N[C@@H](CCC(N)=O)C(=O)NCC(N)=O)NC(=O)[C@H](CC(N)=O)NC(=O)[C@H](CCC(N)=O)NC1=O` [Example 31] (GYIQNE[Sar]QG-NH2; lactam N-6), the concentration giving a half-maximal response (EC50) is over 10000 nM at human V1a receptor, 9 nM in experiment [1] and 2710 nM at human V2 receptor. Further, the Emax came out at 131% in experiment [1] and 91% at human V2 receptor (setting [2]).

Take `CC[C@H](C)[C@@H]1NC(=O)[C@H](Cc2ccc(O)cc2)NC(=O)CNC(=O)CC[C@@H](C(=O)N(C)CC(=O)N[C@H](C(=O)NCC(N)=O)C(C)C)NC(=O)[C@H](CC(N)=O)NC(=O)[C@H](CCC(N)=O)NC1=O` [Example 26] (GYIQNE[Sar]VG-NH2; lactam N-6): the EC50 on human V1a receptor was over 10000 nM; in experiment [1] it was 2 nM; at human V2 receptor, 2620 nM. In experiment [1], the “hOT efficacy (%)” value is recorded as 124%. The Emax on human V2 receptor (setting [2]) was 102%.

For the compound `CC[C@H](C)[C@@H]1NC(=O)[C@H](Cc2ccc(O)cc2)NC(=O)CNC(=O)CC[C@@H](C(=O)N(C)CC(=O)N[C@@H](CC2CCCCC2)C(=O)NCC(N)=O)NC(=O)[C@H](CC(N)=O)NC(=O)[C@H](CCC(N)=O)NC1=O` [Example 39] (GYIQNE[Sar][Cha]G-NH2; lactam N-6), the EC50 on human V1a receptor is over 27000 nM; in experiment [1] it was 0.4 nM; on human V2 receptor, 3710 nM. Besides, the values for the Emax (in experiment [1]; on human V2 receptor (setting [2])) were 122% and 111%, respectively.

For `CC[C@H](C)[C@@H]1NC(=O)[C@H](Cc2ccc(O)cc2)NC(=O)CNC(=O)CC[C@@H](C(=O)N(C)CC(=O)N[C@@H](Cc2ccccc2)C(=O)NCC(N)=O)NC(=O)[C@H](CC(N)=O)NC(=O)[C@H](CCC(N)=O)NC1=O` [Example 27] (GYIQNE[Sar]FG-NH2; lactam N-6), the half-maximal effective concentration (EC50) at human V1a receptor was over 10000 nM; in experiment [1] it was 5 nM; at human V2 receptor it was 1500 nM. The “hOT efficacy (%)” value in experiment [1] is given as 128%. Moreover, the Emax at human V2 receptor (setting [2]) came out at 101%.

Turning to `CC[C@H](C)[C@@H]1NC(=O)[C@H](Cc2ccc(O)cc2)NC(=O)CNC(=O)CC[C@@H](C(=O)N(C)CC(=O)N[C@@H](CCC(=O)O)C(=O)NCC(N)=O)NC(=O)[C@H](CC(N)=O)NC(=O)[C@H](CCC(N)=O)NC1=O` [Example 29] (GYIQNE[Sar]EG-NH2; lactam N-6), the results for the EC50 (on human V1a receptor; in experiment [1]; on human V2 receptor) were over 10000 nM, 32 nM and 10700 nM, respectively. The “hOT efficacy (%)” value in experiment [1] amounted to 130%. At human V2 receptor (setting [2]), the Emax was determined as 39%.

Take `CC[C@H](C)[C@@H]1NC(=O)[C@H](Cc2ccc(O)cc2)NC(=O)CNC(=O)CC[C@@H](C(=O)N(C)CC(=O)N[C@@H](CO)C(=O)NCC(N)=O)NC(=O)[C@H](CC(N)=O)NC(=O)[C@H](CCC(N)=O)NC1=O` [Example 28] (GYIQNE[Sar]SG-NH2; lactam N-6): the EC50 on human V1a receptor was over 10000 nM; in experiment [1], 5 nM; on human V2 receptor, 4170 nM. Further, the “hOT efficacy (%)” value in experiment [1] was 122%. For the same compound, the Emax at human V2 receptor (setting [2]) is 87%.

Turning to `CC[C@H](C)[C@@H]1NC(=O)[C@H](Cc2ccc(O)cc2)NC(=O)CNC(=O)CC[C@@H](C(=O)N(C)CC(=O)N[C@@H](CC(C)C)C(=O)NCC(N)=O)NC(=O)[C@H](CC(N)=O)NC(=O)[C@H](CCC(N)=O)NC1=O` [Example 13] (GYIQNE[Sar]LG-NH2; lactam N-6), the concentration for a half-maximal effect (EC50) on human V1a receptor is over 27000 nM; in experiment [1], 0.2 nM; at human V2 receptor, 5110 nM. For the same compound, the Emax in experiment [1] was determined as 111%; on human V2 receptor (setting [2]), 97%.

Turning to `CC[C@H](C)[C@@H]1NC(=O)[C@H](Cc2ccc(O)cc2)NC(=O)CNC(=O)CC[C@@H](C(=O)N(C)CC(=O)N[C@@H](CCN)C(=O)NCC(N)=O)NC(=O)[C@H](CC(N)=O)NC(=O)[C@H](CCC(N)=O)NC1=O` [Example 30] (GYIQNE[Sar][Dab]G-NH2; lactam N-6), the half-maximal effective concentration (EC50) is over 10000 nM at human V1a receptor, 6 nM in experiment [1] and 142 nM on human V2 receptor. The Emax in experiment [1] turned out to be 119%. Also, the “hV2 efficacy (%)” value on human V2 receptor (setting [2]) is 104%.

As a reminder, the EC50 is the concentration that produces a half-maximal response.
